Results reported in ChEMBL document CHEMBL1201862, “PubChem BioAssay data set” (2004).
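How tested: cells in 96-well plates exposed to compound for 48 hours at five concentrations. Here, GI50 denotes the concentration required for 50% inhibition of growth.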 Activity calls are given as the source filed them. Cut-off read from the data, not from the text of the source: active = GI50 up to about 1.1 µM and inactive = higher.

Legend:
Test in all cases: NCI tumour cell line growth inhibition, 48 h
SNB-78 = test system: SNB-78
UACC-62 = test system: UACC-62
MOLT-4 = test system: MOLT-4
TK-10 = test system: TK-10
LOX IMVI = test system: LOX IMVI
K562 = test system: K562
OVCAR-4 = test system: OVCAR-4
SK-MEL-2 = test system: SK-MEL-2
UO-31 = test system: UO-31
CCRF-CEM = test system: CCRF-CEM
OVCAR-5 = test system: OVCAR-5
OVCAR-8 = test system: OVCAR-8
SNB-19 = test system: SNB-19
SF-539 = test system: SF-539
SF-268 = test system: SF-268
HCT-116 = test system: HCT-116
SK-MEL-28 = test system: SK-MEL-28
MCF7 = test system: MCF7
NCI/ADR-RES = test system: NCI/ADR-RES
T47D = test system: T47D

Structure (SMILES) | GI50 (SNB-78) | GI50 (UACC-62) | GI50 (MOLT-4) | GI50 (TK-10) | GI50 (LOX IMVI) | GI50 (K562) | GI50 (OVCAR-4) | GI50 (SK-MEL-2) | GI50 (UO-31) | GI50 (CCRF-CEM) | GI50 (OVCAR-5) | GI50 (OVCAR-8) | GI50 (SNB-19) | GI50 (SF-539) | GI50 (SF-268) | GI50 (HCT-116) | GI50 (SK-MEL-28) | GI50 (MCF7) | GI50 (NCI/ADR-RES) | GI50 (T47D)
COc1ccc(S(=O)(=O)N/N=C/c2cc(I)cc([N+](=O)[O-])c2O)cc1OC | 24.7 µM (inactive) | 25.8 µM (inactive) | 24.8 µM (inactive) | 62.1 µM (inactive) | 43.3 µM (inactive) | 35.2 µM (inactive) | 25.2 µM (inactive) | 22.5 µM (inactive) | 22 µM (inactive) | 34.4 µM (inactive) | > 100 µM (inactive) | 53.2 µM (inactive) | 26.3 µM (inactive) |  |  |  |  |  |  | 
COC1=CC23C=CC1[C@@H](c1ccccc1)C2=C(C)C(=O)N3C(=O)NC1CCCCC1 (stereo partly specified) | 26.4 µM (inactive) | 26.5 µM (inactive) | 18 µM (inactive) | 26.7 µM (inactive) | 17 µM (inactive) | 28.2 µM (inactive) |  | 17.5 µM (inactive) | 20.7 µM (inactive) | 25.7 µM (inactive) | 23.7 µM (inactive) | 25.3 µM (inactive) | 31.8 µM (inactive) | 19.4 µM (inactive) | 15.8 µM (inactive) | 15 µM (inactive) | 18.5 µM (inactive) |  |  | 
CCCCCCCCCCCC(=O)OCC1OC(n2cc(F)c(=O)[nH]c2=O)C(N)C(O)C1O (stereo unspecified) | > 100 µM (inactive) | 42 µM (inactive) | 36.3 µM (inactive) |  |  | 32.2 µM (inactive) | > 100 µM (inactive) | > 100 µM (inactive) | > 100 µM (inactive) | 31.2 µM (inactive) | 11.5 µM (inactive) | 73.5 µM (inactive) | 57.9 µM (inactive) | > 100 µM (inactive) | > 100 µM (inactive) | 88.1 µM (inactive) | > 100 µM (inactive) |  |  | 
C1=CC=C2NCCOCC/N=C3/C=CC=CC=C3NCCOCC/N=C\2C=C1 | > 100 µM (inactive) | 47.9 µM (inactive) | 44.9 µM (inactive) | > 100 µM (inactive) | 29 µM (inactive) | 31.4 µM (inactive) | 59.2 µM (inactive) | 69 µM (inactive) | > 100 µM (inactive) | 40 µM (inactive) | > 100 µM (inactive) | 57.4 µM (inactive) | > 100 µM (inactive) |  | > 100 µM (inactive) | 28.4 µM (inactive) | 86.5 µM (inactive) |  |  | 
O=C1C2Cc3ccccc3CN2C(=O)N1CN1CCN(CN2C(=O)C3Cc4ccccc4CN3C2=O)CC1 (stereo unspecified) | > 100 µM (inactive) | > 100 µM (inactive) | > 100 µM (inactive) | > 100 µM (inactive) | > 100 µM (inactive) | > 100 µM (inactive) |  | > 100 µM (inactive) | > 100 µM (inactive) | > 100 µM (inactive) | > 100 µM (inactive) | > 100 µM (inactive) | > 100 µM (inactive) | > 100 µM (inactive) | > 100 µM (inactive) |  | > 100 µM (inactive) |  |  | 
NC(=O)N/N=C(\C(=O)C(=O)Nc1ccc(Cl)c(C(F)(F)F)c1)c1nc2ccc(C(=O)c3ccccc3)cc2nc1O | 76.6 µM (inactive) | 59 µM (inactive) | 35.3 µM (inactive) | > 100 µM (inactive) |  | 48.4 µM (inactive) | 53.8 µM (inactive) | > 100 µM (inactive) | 31.6 µM (inactive) | 55.8 µM (inactive) | > 100 µM (inactive) | 88.9 µM (inactive) | > 100 µM (inactive) | > 100 µM (inactive) | 70.3 µM (inactive) | > 100 µM (inactive) | > 100 µM (inactive) |  |  | 
CC1(C)CCc2cc3c(cc2O1)OC(C)(C)C1c2c(ccc4c2CCC(C)(C)O4)OC31 (stereo unspecified) | > 100 µM (inactive) | > 100 µM (inactive) | > 100 µM (inactive) |  | > 100 µM (inactive) | > 100 µM (inactive) | > 100 µM (inactive) | > 100 µM (inactive) | > 100 µM (inactive) | > 100 µM (inactive) | 68.4 µM (inactive) | > 100 µM (inactive) |  | > 100 µM (inactive) | > 100 µM (inactive) | > 100 µM (inactive) |  |  |  | 
O=c1ccn(C2(CO)C=C(CO)C(O)C2O)c(=O)[nH]1 (stereo unspecified) | > 25.7 µM (inactive) | > 25.7 µM (inactive) | > 25.7 µM (inactive) | > 25.7 µM (inactive) |  | > 25.7 µM (inactive) | > 25.7 µM (inactive) | > 25.7 µM (inactive) | > 25.7 µM (inactive) |  |  | > 25.7 µM (inactive) | > 25.7 µM (inactive) | > 25.7 µM (inactive) | > 25.7 µM (inactive) | > 25.7 µM (inactive) | > 25.7 µM (inactive) |  |  | 
CC(C)=CCC[C@@H](C)C1=C(N)C(=O)C(C)=C(O)C1=O |  | 31.1 µM (inactive) | 19.5 µM (inactive) | 53.1 µM (inactive) | 36.6 µM (inactive) | 35.7 µM (inactive) | 35.7 µM (inactive) | 65.9 µM (inactive) | 36 µM (inactive) | 18.7 µM (inactive) | 53.1 µM (inactive) | 22.4 µM (inactive) | 60.7 µM (inactive) | 41.7 µM (inactive) | 27.4 µM (inactive) | 27.6 µM (inactive) | > 75 µM (inactive) | 61.5 µM (inactive) | 8.28 µM (inactive) | 42.9 µM (inactive)
O=c1[nH]nc(Cc2ccccc2)[nH]1 |  | > 100 µM (inactive) | > 100 µM (inactive) | > 100 µM (inactive) | > 100 µM (inactive) | > 100 µM (inactive) | > 100 µM (inactive) | > 100 µM (inactive) | > 100 µM (inactive) | > 100 µM (inactive) | > 100 µM (inactive) | > 100 µM (inactive) | > 100 µM (inactive) | > 100 µM (inactive) | > 100 µM (inactive) | > 100 µM (inactive) | > 100 µM (inactive) | > 100 µM (inactive) | > 100 µM (inactive) | > 100 µM (inactive)
CON1C(=O)C2(CCCCC2)C(=O)C12C=CC(C)CC2 (stereo unspecified) | > 100 µM (inactive) | > 100 µM (inactive) | 78.9 µM (inactive) | > 100 µM (inactive) | > 100 µM (inactive) | 85.5 µM (inactive) |  | > 100 µM (inactive) | 47.4 µM (inactive) | > 100 µM (inactive) |  | > 100 µM (inactive) | > 100 µM (inactive) | > 100 µM (inactive) | > 100 µM (inactive) |  | > 100 µM (inactive) |  |  | 
Cc1ccc(-c2cc(-c3cc(-c4ccc(C)cc4C)[nH]n3)[nH]n2)c(C)c1 |  | 24.8 µM (inactive) | 10.1 µM (inactive) | 15.6 µM (inactive) | 19.9 µM (inactive) | 15.5 µM (inactive) | 8.71 µM (inactive) | 18.2 µM (inactive) | 23 µM (inactive) | 0.71 µM (active) | 23.7 µM (inactive) | 15 µM (inactive) | 18.5 µM (inactive) | 17 µM (inactive) | 12.5 µM (inactive) | 16 µM (inactive) | 13.7 µM (inactive) | 15 µM (inactive) | 18.9 µM (inactive) | 15 µM (inactive)
OCCc1ccsc1-c1sc(-c2cc(CCO)c(-c3sc(-c4cc(CCO)c(-c5sccc5CCO)s4)cc3CCO)s2)cc1CCO |  | 1.56 µM (inactive) | 0.52 µM (active) | 1.55 µM (inactive) | 0.617 µM (active) | 1.14 µM (inactive) | 1.16 µM (inactive) | 1.68 µM (inactive) | 1.29 µM (inactive) | 0.647 µM (active) | 1.38 µM (inactive) | 1.55 µM (inactive) | 1.7 µM (inactive) | 1.44 µM (inactive) | 0.881 µM (active) | 0.889 µM (active) | 1.55 µM (inactive) | 0.624 µM (active) | 1.86 µM (inactive) | 1.3 µM (inactive)
Nc1ccc2nc3n(c2c1)C(c1c(F)cccc1F)SC3 (stereo unspecified) |  | > 100 µM (inactive) | 38.1 µM (inactive) | > 100 µM (inactive) | > 100 µM (inactive) | 85.5 µM (inactive) | > 100 µM (inactive) | > 100 µM (inactive) | 72.6 µM (inactive) | 68.2 µM (inactive) | > 100 µM (inactive) | > 100 µM (inactive) | > 100 µM (inactive) | > 100 µM (inactive) | > 100 µM (inactive) | > 100 µM (inactive) | > 100 µM (inactive) | > 100 µM (inactive) | > 100 µM (inactive) | > 100 µM (inactive)
Cn1c(=O)cc(NNc2ccc(Cl)c(Cl)c2)[nH]c1=O |  | 1.71 µM (inactive) | 14.5 µM (inactive) | 16.7 µM (inactive) | 12.2 µM (inactive) | 2.04 µM (inactive) | 10.7 µM (inactive) | 16.4 µM (inactive) | 12.1 µM (inactive) | 13.1 µM (inactive) | 14.4 µM (inactive) | 13.6 µM (inactive) | 32.1 µM (inactive) | 15.1 µM (inactive) | 27.9 µM (inactive) | 7.19 µM (inactive) | 11.5 µM (inactive) | 6.41 µM (inactive) | 13.3 µM (inactive) | 4.99 µM (inactive)
COC(=O)[C@@H](NC1(c2ccccc2)c2ccccc2-c2ccccc21)[C@H](OC(=O)[C@H]1CCCN1S(=O)(=O)c1ccccc1)C(=O)OC |  | > 100 µM (inactive) | > 100 µM (inactive) | > 100 µM (inactive) | > 100 µM (inactive) | > 100 µM (inactive) | > 100 µM (inactive) | 39.8 µM (inactive) | > 100 µM (inactive) | > 100 µM (inactive) | > 100 µM (inactive) | > 100 µM (inactive) | > 100 µM (inactive) | > 100 µM (inactive) | > 100 µM (inactive) | > 100 µM (inactive) | > 100 µM (inactive) | > 100 µM (inactive) | > 100 µM (inactive) | > 100 µM (inactive)
